Experimental data reported in paper PMC2916045 (Journal of the American Chemical Society, 2010).
“Also recorded” adds a separate entry of the source.

Key:
[1] = test system: primary cortical neuron cultures; assay: HCA oxidative stress neuroprotection assay
α-tubulin acetylation = details: at 5 µM; ref 29 (Parmigiani et al.); cited from earlier work
[2] = test system: α-tubulin hyperacetylation, corresponding to HDAC6 inhibition; assay: α-tubulin hyperacetylation in cells; details: for α-tubulin hyperacetylation versus histone hyperacetylation: at 2.5 µM
[3] = test system: primary cortical neuron cultures; assay: Neuronal toxicity of compound alone; format: cell-based, Sprague-Dawley rats; details: all concentrations tested, without HCA, 24 h, MTT
[4] = test system: histone hyperacetylation, corresponds to class I HDAC inhibition; assay: histone hyperacetylation in cells; details: at 10 µM

SMILES	neuroprotection in HCA-induced neurodegeneration assay ([1]; at 0.5 µM, HCA 5 mM, 24 h, MTT)	neurotoxicity in HCA-induced neurodegeneration assay ([1]; at concentrations higher than 0.5 µM, protection declined)	α-tubulin acetylation (α-tubulin acetylation)	α-tubulin hyperacetylation versus histone hyperacetylation [2]	levels of acetylated α-tubulin ([2]; primary cortical neuron cultures)	neuronal toxicity when tested alone [3]	histone hyperacetylation [4]	in vitro ADME properties (in vitro ADME properties)	concentration at which protection against HCA-induced neuronal cell death starts ([1]; HCA 5 mM, 24 h, MTT) [µM]	protection against HCA-induced neuronal cell death (glutathione depletion-induced oxidative stress) ([1]; HCA 5 mM, 24 h, MTT, concentration series)	protection against HCA-induced neuronal cell death ([1]; at 10 µM, HCA 5 mM, 24 h, MTT)
CC(/C=C/C(=O)NO)=C\[C@@H](C)C(=O)c1ccc(N(C)C)cc1 [TSA, trichostatin A, reference compound]	moderately neuroprotective	dose-dependant neurotoxicity	–	–	–	–	–	–	–	–	–
O=C(CCCCCCC(=O)Nc1ccc([C@H]2O[C@@H](CSc3nc(-c4ccccc4)c(-c4ccccc4)o3)C[C@@H](c3ccc(CO)cc3)O2)cc1)NO [Tubacin, reference compound]	–	–	induces α-tubulin acetylation	preferentially induced α-tubulin hyperacetylation	–	–	–	–	–	–	–
CN1CCc2c(c3ccccc3n2Cc2ccc(C(=O)NO)cc2)C1.O=C(O)C(F)(F)F [compound 6, Tubastatin A]	–	–	–	preferentially induced α-tubulin hyperacetylation	induce elevated levels of acetylated α-tubulin	exhibited no toxicity; also recorded: no neuronal toxicity	Slight induction of histone hyperacetylation	favorable in vitro ADME properties	5	dose-dependent protection	near complete protection
